What was measured:
[1] = Pharmacokinetics in plasma and brain, male Sprague-Dawley rats; assay type: in vivo; details: male Sprague-Dawley rat
Description: Plasma pharmacokinetics of each compound in male Sprague-Dawley rats (n = 3 animals per study) were determined after intravenous dosing at 2 mg/kg in 100 % dimethylsulfoxide (DMSO) or after administration of 5 mg/kg by oral gavage with test article formulated in 5 % Tween 80 in OraPlus®. At designated time points, blood was collected via the femoral artery and processed for plasma by centrifugation. Plasma was then transferred into a 96-well container and stored in a freezer maintained at −70 °C. Similar bioanalytical methods were used to determine plasma and brain exposure in animals tested in pharmacodynamic and pain models. Brain samples were homogenized with a 4:1 ratio of water (mL) for every gram of brain tissue. […] Calibration standards were prepared from a 1 mg/mL stock solution of each compound in DMSO with a serial dilution into a blank matrix (plasma or brain homogenate). Liquid chromatography with tandem mass spectrometry was used for the quantitation of each compound in rat plasma and brain. Non-compartmental pharmacokinetic analysis of plasma concentrations was conducted using WinNonlin Enterprise v.5.1.1 (Pharsight Corporation, Mountain View, CA). Brain uptake was calculated as a ratio of concentration in whole brain tissue to that in plasma taken from the same animal at approximately the same time.

[2] = system: SNL rats; assay: SNL-induced tactile allodynia (von Frey, up-down method); assay type: in vivo, rat; details: 100 mg/kg p.o.; p > 0.05 vs vehicle (4.4 ± 1.2 g)
Description: SNL surgery was performed using aseptic surgical techniques and a stereomicroscope (Kim and Chung [1992]). Spinal nerve injury was caused by ligating the left L5 and L6 spinal nerves, with special care to avoid damage to the L4 spinal nerve or surrounding area. More specifically, under gaseous anesthesia with a mixture of O2 and isoflurane (3 % for induction and 2 % for maintenance), skin was excised and the longissimus lumborum muscle, part of articular processes (L4-S1), and the fascia above L6 spinal nerve were carefully removed. […]
Behavioral testing Two weeks post surgery, mechanical sensitivity was measured by determining the median 50 % foot withdrawal threshold for von Frey filaments using the up-down method (Chaplan et al. [1994]). […] To avoid possible reflex responses, only abrupt withdrawal of the foot accompanied by pain indicative behaviors (namely paw flinching, shaking, or licking for more than 2 s) was recorded as a response. […]
In vivo IC50 and IC90 estimates using WDS model data were determined by fitting a sigmoidal dose-response curve to individual animal number of WDS versus resulting plasma concentration. Behavioral and electrophysiological data are expressed as mean ± standard error of the mean (S.E.M.). Results were analyzed using one-way analysis of variance (ANOVA) with Dunnett’s multiple-comparisons post-hoc test for significance relative to vehicle. […]

[3] = target: T1, rat TRPV3 (Rattus norvegicus, UniProt Q4QYD9); assay: Luminescence (aequorin) readout of intracellular calcium, CHO cells expressing rat TRPV3, 2-APB activation; assay type: cell-based; details: 200 uM 2-APB, read-out: rTRPV3 IC50
T1 construct: expressed in transfected cells; host or cells: CHO, T-REx tetracycline-inducible system (Invitrogen), co-transfected with aequorin
T1 sequence (Q4QYD9 1-791): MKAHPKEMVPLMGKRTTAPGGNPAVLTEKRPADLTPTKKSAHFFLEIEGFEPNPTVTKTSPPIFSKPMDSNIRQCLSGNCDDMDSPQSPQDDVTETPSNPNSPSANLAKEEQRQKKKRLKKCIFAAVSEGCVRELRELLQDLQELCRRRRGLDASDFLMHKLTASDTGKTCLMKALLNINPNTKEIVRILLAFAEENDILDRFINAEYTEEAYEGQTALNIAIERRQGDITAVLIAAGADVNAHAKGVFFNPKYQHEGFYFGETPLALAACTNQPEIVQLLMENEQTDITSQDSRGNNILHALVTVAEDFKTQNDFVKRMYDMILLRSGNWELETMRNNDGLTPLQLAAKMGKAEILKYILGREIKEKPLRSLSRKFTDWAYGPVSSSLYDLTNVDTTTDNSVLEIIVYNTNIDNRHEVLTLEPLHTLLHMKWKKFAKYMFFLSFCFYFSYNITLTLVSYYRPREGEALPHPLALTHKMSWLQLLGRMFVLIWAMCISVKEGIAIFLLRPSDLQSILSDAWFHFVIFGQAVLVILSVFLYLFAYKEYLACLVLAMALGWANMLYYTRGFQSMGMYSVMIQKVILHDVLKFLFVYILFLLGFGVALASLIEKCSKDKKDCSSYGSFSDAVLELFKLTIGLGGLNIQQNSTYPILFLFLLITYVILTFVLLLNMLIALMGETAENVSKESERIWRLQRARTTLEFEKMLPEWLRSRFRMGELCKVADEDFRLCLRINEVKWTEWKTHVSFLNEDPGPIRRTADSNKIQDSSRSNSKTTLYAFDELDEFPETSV
Source text: Stable Chinese hamster ovary (CHO) cell lines expressing rat TRPA1, rat TRPM8, rat TRPV3, and human TRPV4 were generated using the tetracycline-inducible T-REx™ expression system from Invitrogen (Carlsbad, CA) and a stable CHO cell line expressing rat TRPV1 was generated using a constitutive expression system (Klionsky et al. [2007]). To enable a luminescence readout based on intracellular increase in calcium (Le Poul et al. [2002]), each cell line was also co-transfected with pcDNA3.1 plasmid containing jelly fish aequorin cDNA. Twenty-four hours before the assay, cells were seeded in 96-well plates and all TRP channel expression, except for TRPV1, was induced with 0.5 ug/mL tetracycline. […] Luminescence was measured by a CCD camera-based FLASH-luminometer built by Amgen, Inc. The following agonists were used to activate TRP channels: 0.5 uM capsaicin for TRPV1, 80 uM allyl isothiocyanate (AITC) for TRPA1, 1 uM icilin or cold buffer (12 °C) for TRPM8, 200 uM aminoethoxydiphenyl borate (2-APB) for TRPV3, and 1 uM 4α-phorbol 12,13-didecanoate (4α-PDD) for TRPV4. Antagonist IC50 values were calculated using GraphPad Prism 4.01 (GraphPad Software Inc, San Diego, CA).

**Q.** Which results are given for `C[C@H](NC(=O)N1CCc2cccnc2[C@H]1c1ccc(C(F)(F)F)cc1)C(F)(F)F` [AMG2850, (R)-8-(4-(trifluoromethyl)phenyl)-N-((S)-1,1,1-trifluoropropan-2-yl)-5,6-dihydro-1,7-naphthyridine-7(8H)-carboxamide]?
**A.** Oral bioavailability ([1]; 5 mg/kg oral gavage): 47%; clearance ([1]; plasma, iv, i.v. 2 mg/kg): 7.83 mL/min/kg; bioavailability ([1]; plasma, 5 mg/kg oral gavage): > 40%; tactile threshold (von Frey), SNL model [2]: 5.8 ± 1.3 g; IC50 [3]: > 25 µM
